{
  "source": "patent US12685757B2",
  "about": "“Method to increase systemic blood pressure in shock” (GEORGETOWN UNIVERSITY, priority 2019, dated 2026)",
  "key": {"DRG": {"system": "DRG", "assay": "nLacZ staining of DRG after systemic TRPV1 agonist (neurotoxicity)", "assay_type": "in vivo", "conditions": "50 μg/kg; TRPV1-nLacZ reporter mice; preliminary data", "text": "A potential adverse effect of TRPV1 agonists is toxicity to sensory nerves. Indeed, in vivo administration of the ultrapotent agonist, resiniferatoxin (RTX), or even high doses of capsaicin can lead to destruction of TRPV1+ neurons (Szallasi S and Blumberg P M, “Vanilloid receptor loss in rat sensory ganglia associated with long term desensitization to resiniferatoxin” Neurosci Lett 140 (1)(1992)51-54. In one embodiment, TRPV1 agonists that poorly penetrate the CNS, such as DkTx or BrP-LPA, are employed. In vivo toxicity is tested by the administration of TRPV1 agonists in TRPV1^PLAP-nLacZ mice based on the highest cumulative doses utilized in EXAMPLE 5. One week later, DRG are isolated and analyzed for nLacZ staining. […] This analysis therefore determines TRPV1 agonist neurotoxicity and forms an assay for toxicity limiting strategies. In one embodiment, BrP-LPA is employed as a more hydrophilic molecule than capsaicin with less neurotoxicity. In another embodiment, DkTx, with limited CNS penetration, is employed to avoid neurotoxicity.\nX-gal staining. TRPV1^PLAP-nlacZ mice were anesthetized with isoflurane and perfused through the heart using PBS (0.1M, pH 7.3) followed by ice-cold 2-4% buffered paraformaldehyde. […]"}, "[1]": {"system": "isolated pressurized (60 mmHg) arteries", "assay": "Ex vivo contractility of isolated pressurized arteries", "parameters": "species or system mice", "conditions": "arterioles", "procedure": "Ex vivo artery physiology: Skeletal muscle arteries (radial artery branch, artery #18, subscapular branch artery #14) and cerebellar branch, cerebral artery #3) were isolated and cannulated with glass micropipettes secured with monofilament threads. The pipette and bathing solution contained modified PSS (125 mM NaCl, 3 mM KCl, 26 mM NaHCO3, 1.25 mM NaH2PO4, 1 mM MgCl2, 4 mM D-glucose, and 2 mM CaCl2)) aerated with a gas mixture consisting of 95% 02, 5% CO2, to maintain pH (pH 7.4). Arterioles were pressure clamped (60 mmHg) using a custom-built apparatus in a heated imaging chamber (Tokai Hit), viewed with a 10× objective using a Nikon TE2000 microscope and recorded by a Retiga 3000 digital camera (QImaging). The arteriole diameter was measured at several locations along each arteriole using the NIH-ImageJ software's edge-detection plug-in (Diameter). The software automatically detects the distance between edges (by resampling a total of five times from adjacent pixels) yielding a continuous read-out SD of a vessel's diameter."}},
  "data": [
    {"substance": "resiniferatoxin", "values": [
      {"measurement": "nLacZ staining in DRG", "setting": "DRG", "value": "nearly completely abolishes nLacZ staining"},
      {"measurement": "response to prolonged application", "setting": "[1]", "value": "non-desensitizing response"}
    ]}
  ]
}
